Experimental data taken from patent US5494803A, “Immunodiagnostic assay using liposomes carrying labels thereof on outer liposome surface” (North Carolina State University, priority 1994, dated 1996).

Tests used:
Anti-Biotin Antibody = details: half-hour exposure, ten-minute PBS wash
Description: PMMA cuvettes were cleaned by sonication for twelve hours in RBS solution, followed by sonication in deionized water for twenty-four hours. The cuvettes were incubated in 0.2 ml of 40 μg/ml of anti-biotin antibody (ABA) solution in PBS for two hours at room temperature and rinsed with 0.4 ml PBS twice to remove unbound antibody. The cuvettes were then incubated in 0.2 ml of 3 weight % BSA solution in PBS as a blocking agent for one hour at room temperature, and rinsed twice with 0.4 ml of PBS. […]
A manual shutter 22 was attached to the laser so that essentially no light would reach the sample when the shutter was closed. […] The emitted fluorescence was detected by a photomultiplier tube 29 (Hamamatsu Co., Hamamatsu, Japan). A 520 nm filter 28 was placed on top of the tube so that only the emitted light from fluorescein would be measured. The output from the photomultiplier 29 was sent to a preamplifier, not shown, (Model C716, Hamamatsu) and recorded using a digital photon counter 30 (Model C1230, Hamamatsu). […]
The adsorption of fluorescent biotin-conjugated liposomes and FITC-Biotin to the surface of the PMMA cuvettes was studied by measuring the amount of fluorescence remaining on the surface of the cuvette after exposure to a known concentration of fluorescent species and a washing step with PBS. […]

[1] = target: anti-biotin antibody (ABA); assay: C^14-biotin adsorption to antibody-coated PMMA slides (radioimmunoassay isotherm, Langmuir fit); type: binding
Description: The adsorption of biotin to the antibody-coated PMMA surface was studied by exposing the surfaces to C^14 -labeled biotin, washing the slides, and determining the amount of radioactivity remaining on the solid support at different initial concentrations of biotin in the bulk solution. Four PMMA slides (1.5 cm×1.5 cm) coated with antibody, as described above, were incubated in 10 ml of C^14 -biotin PBS solutions in the concentration range from 10^-8 to 10^-4 M. After a ninety minute exposure, the slides were dipped quickly in 200 ml of deionized water to remove unbound C^14 -biotin from the surface. The radioactivity of the slides was determined by scintillation counting. […] As a control, the non-specific adsorption of C^14 -biotin to PMMA alone and to BSA-covered PMMA was tested the same way, using a C^14 -biotin concentration of 10^-4 M.
The ability of the antibody-covered surface to bind biotin based on the results of radioimmunoassays is indicated by the isotherm shown in FIG. 3. The number of moles of biotin bound per unit area of surface is shown as a function of the initial concentration of biotin to which the surface was exposed. […] Assuming that each antibody molecule adsorbed to the surface can bind two biotin molecules, this corresponds to 0.88×10^-12 moles of active ABA/cm^2. […]
The quantity av is the ratio (A/V) which equals 1.88 cm^-1 in these experiments. […]

[2] = test system: anti-biotin antibody (ABA)
Description: The adsorption of fluorescent biotin-conjugated liposomes and FITC-Biotin to the surface of the PMMA cuvettes was studied by measuring the amount of fluorescence remaining on the surface of the cuvette after exposure to a known concentration of fluorescent species and a washing step with PBS. One milliliter of solution containing fluorescent species was injected into the inlet of the cuvette 27 with a syringe, and the solution was allowed to stand in the cuvette for either half an hour or an hour, depending on the experiment. Unbound fluorescent molecules were then washed from the cuvette by pumping PBS with a peristaltic pump at a flow rate of 1 /min. After washing, the shutter 22 on the laser 21 was opened for a few seconds, until the digital reading on the photomultiplier tube counter 30 stabilized. This was recorded as the fluorescent signal in kilo-counts per second (KCPS) coming from the interface. […] This was done when it was necessary to investigate the role of the washing step in reducing the measured fluorescence signal. […]
The maximum signal obtained for adsorbed vesicles, at very high molar concentrations of liposomes, is approximately 1250 KCPS. The quantity λL is estimated by taking the measured fluorescence at a given set of concentrations, and dividing by the maximum signal value for full surface coverage.

Molecule	association constant of FITC-Biotin to ABA (in words) (Anti-Biotin Antibody)	Kd ([1]; Langmuir isotherm best fit, PMMA coated with ABA, blocked with BSA, PBS, read-out: equilibrium binding constant K (KB) of biotin on adsorbed ABA (converted)) [nM]	saturation level of biotin bound per unit area of surface ([1]; biotin concentrations greater than 10^-4 M)	free biotin concentration at which the decrease in fluorescence commences (experimental) ([2]; liposomes 0.01 or 0.03 mg/ml)	free biotin concentration at which fluorescence should decrease significantly (simple Langmuir model) ([2]; predicted from KB and KL)
fluorescein isothiocyanate-biotin [FITC-Biotin]	very low association constant				
O=C(O)CCCC[C@@H]1SC[C@@H]2NC(=O)N[C@@H]21 [biotin]		400	approximately 1.8×10^-12 moles of biotin/cm^2	approximately 2×10^-5 M	approximately 4×10^-7 M
